Calls of active or inactive are those of the source.
Legend:
Format in all cases: functional
[1] = target: T1, Replicative DNA helicase DnaB (Mycobacterium tuberculosis, UniProt P9WMR3); assay: DnaB intein splicing inhibitors, dose response, biochemical, cell-free fluorescence (AID 449749)
T1 sequence (P9WMR3 whole entry): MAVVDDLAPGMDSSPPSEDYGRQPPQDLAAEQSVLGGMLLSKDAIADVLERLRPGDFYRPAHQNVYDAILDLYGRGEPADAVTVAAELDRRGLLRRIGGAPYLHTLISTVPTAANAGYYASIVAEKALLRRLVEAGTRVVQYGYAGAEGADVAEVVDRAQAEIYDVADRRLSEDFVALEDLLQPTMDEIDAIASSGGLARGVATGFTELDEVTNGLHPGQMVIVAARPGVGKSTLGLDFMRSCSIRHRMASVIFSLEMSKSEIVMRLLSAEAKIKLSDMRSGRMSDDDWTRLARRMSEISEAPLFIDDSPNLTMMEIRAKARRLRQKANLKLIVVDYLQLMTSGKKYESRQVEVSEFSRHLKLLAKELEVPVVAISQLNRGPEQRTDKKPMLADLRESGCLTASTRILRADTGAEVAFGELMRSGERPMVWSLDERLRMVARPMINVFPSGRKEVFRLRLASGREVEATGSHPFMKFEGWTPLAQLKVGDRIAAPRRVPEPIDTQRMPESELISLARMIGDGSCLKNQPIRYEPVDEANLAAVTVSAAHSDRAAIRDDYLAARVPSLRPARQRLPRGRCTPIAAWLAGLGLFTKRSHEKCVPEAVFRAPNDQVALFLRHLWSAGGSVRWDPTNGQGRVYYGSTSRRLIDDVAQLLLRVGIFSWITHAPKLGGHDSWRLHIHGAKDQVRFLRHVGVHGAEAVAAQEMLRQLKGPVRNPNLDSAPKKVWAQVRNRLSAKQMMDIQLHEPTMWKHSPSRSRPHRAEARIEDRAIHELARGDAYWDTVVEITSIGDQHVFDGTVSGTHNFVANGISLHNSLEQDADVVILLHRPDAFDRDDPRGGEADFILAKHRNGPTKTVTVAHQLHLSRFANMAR

[2] = target: Dual specificity mitogen-activated protein kinase kinase 1 (Homo sapiens, UniProt Q02750); assay: Navigating the Kinome. Panel member name: MAP2K1
[3] = target: Serine/threonine-protein kinase pim-1 (Homo sapiens, UniProt P11309)
[4] = target: High affinity nerve growth factor receptor (Homo sapiens, UniProt P04629);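 note: NTRK1 tested as one member of a kinome-wide profiling panel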
[5] = target: T2, cAMP-dependent protein kinase catalytic subunit PRKX (Homo sapiens, UniProt P51817)
T2 sequence (P51817 whole entry): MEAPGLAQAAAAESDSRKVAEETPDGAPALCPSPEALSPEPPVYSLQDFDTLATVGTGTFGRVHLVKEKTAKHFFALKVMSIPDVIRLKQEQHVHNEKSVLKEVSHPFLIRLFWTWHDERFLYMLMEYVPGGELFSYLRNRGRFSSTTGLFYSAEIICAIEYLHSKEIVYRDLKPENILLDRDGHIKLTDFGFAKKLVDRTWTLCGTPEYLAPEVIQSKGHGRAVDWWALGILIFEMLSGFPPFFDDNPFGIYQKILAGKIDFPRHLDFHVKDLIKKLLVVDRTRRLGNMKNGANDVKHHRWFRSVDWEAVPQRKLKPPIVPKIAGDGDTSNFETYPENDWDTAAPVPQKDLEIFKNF

[6] = target: Macrophage-stimulating protein receptor (Homo sapiens, UniProt Q04912); assay: Navigating the Kinome. Panel member name: MST1R
Macrophage-stimulating protein receptor, sequence (Q04912 25-304 limits assumed): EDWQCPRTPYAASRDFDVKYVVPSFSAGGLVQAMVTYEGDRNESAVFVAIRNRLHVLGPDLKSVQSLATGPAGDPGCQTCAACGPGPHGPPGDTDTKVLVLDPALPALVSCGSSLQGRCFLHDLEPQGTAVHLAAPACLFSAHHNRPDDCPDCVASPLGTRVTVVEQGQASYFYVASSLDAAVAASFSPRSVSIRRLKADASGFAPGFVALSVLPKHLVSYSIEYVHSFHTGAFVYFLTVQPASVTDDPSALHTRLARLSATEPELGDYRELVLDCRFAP
Macrophage-stimulating protein receptor, sequence (Q04912 310-1400 limits assumed): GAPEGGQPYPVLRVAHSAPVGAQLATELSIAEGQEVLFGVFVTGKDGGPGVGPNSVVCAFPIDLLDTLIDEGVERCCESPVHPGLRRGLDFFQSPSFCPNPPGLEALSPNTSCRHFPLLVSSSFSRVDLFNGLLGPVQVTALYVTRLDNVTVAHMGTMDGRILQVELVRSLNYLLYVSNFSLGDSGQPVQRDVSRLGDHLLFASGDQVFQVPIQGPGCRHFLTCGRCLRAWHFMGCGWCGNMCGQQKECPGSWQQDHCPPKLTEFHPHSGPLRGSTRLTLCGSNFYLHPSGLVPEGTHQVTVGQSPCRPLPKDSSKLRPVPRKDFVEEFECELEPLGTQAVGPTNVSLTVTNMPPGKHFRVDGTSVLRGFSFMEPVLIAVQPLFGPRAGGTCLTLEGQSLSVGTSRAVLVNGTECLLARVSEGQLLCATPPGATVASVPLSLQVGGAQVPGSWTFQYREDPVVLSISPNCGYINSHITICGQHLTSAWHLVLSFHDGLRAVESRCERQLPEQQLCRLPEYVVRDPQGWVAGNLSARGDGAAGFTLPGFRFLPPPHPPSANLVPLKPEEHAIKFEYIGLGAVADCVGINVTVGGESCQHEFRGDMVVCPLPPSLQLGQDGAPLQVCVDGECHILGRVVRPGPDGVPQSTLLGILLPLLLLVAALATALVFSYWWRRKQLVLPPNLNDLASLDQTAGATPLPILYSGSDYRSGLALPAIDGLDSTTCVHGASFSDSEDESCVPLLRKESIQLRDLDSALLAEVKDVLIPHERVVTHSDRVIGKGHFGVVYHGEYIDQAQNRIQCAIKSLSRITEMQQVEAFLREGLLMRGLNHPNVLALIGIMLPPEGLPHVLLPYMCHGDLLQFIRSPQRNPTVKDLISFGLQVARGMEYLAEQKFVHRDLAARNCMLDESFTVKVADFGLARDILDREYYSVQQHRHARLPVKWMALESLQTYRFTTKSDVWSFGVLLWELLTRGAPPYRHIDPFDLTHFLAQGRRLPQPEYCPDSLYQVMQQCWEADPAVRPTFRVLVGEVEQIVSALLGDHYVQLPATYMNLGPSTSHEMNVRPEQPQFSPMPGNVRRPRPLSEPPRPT

High affinity nerve growth factor receptor, sequence (P04629 whole entry): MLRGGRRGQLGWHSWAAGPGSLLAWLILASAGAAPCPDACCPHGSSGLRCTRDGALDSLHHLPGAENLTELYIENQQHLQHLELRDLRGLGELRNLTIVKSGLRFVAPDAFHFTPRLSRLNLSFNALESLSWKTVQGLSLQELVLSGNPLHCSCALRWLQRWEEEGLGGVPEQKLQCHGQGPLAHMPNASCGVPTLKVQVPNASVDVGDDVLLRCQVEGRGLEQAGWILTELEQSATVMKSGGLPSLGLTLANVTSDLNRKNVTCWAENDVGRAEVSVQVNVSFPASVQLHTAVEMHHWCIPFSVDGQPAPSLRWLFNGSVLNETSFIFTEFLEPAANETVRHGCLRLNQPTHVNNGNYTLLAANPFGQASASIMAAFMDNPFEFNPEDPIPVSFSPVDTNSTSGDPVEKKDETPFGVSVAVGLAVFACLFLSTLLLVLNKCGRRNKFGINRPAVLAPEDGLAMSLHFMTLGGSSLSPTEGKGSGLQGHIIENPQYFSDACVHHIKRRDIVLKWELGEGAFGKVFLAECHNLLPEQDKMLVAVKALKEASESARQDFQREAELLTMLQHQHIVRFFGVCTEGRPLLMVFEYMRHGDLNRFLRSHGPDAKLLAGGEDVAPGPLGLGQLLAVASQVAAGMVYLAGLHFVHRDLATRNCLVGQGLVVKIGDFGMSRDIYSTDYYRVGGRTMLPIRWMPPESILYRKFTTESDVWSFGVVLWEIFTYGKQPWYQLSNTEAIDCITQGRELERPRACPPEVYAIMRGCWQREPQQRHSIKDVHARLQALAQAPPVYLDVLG
Serine/threonine-protein kinase pim-1, sequence (P11309 whole entry): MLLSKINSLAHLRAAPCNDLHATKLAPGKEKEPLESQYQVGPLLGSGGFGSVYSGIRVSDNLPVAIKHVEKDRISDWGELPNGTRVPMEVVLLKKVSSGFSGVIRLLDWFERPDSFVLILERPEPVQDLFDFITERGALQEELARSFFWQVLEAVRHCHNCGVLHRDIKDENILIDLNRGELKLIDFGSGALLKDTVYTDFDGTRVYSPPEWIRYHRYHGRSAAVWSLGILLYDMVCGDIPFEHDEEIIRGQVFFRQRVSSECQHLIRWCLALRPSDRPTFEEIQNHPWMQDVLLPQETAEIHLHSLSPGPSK
Dual specificity mitogen-activated protein kinase kinase 1, sequence (Q02750 whole entry): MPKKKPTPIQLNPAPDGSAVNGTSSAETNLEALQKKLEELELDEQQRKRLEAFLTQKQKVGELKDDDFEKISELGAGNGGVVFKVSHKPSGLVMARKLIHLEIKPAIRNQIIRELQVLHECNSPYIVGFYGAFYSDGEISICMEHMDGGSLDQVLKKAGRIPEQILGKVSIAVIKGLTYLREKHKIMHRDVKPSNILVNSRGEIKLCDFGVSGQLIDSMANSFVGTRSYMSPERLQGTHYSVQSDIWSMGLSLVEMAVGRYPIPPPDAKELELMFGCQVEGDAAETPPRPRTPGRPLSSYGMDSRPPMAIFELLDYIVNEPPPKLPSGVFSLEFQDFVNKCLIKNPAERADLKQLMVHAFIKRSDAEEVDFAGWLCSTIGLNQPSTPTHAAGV

| Structure (SMILES) | AC50 [1] | Ki [2] | Ki [3] | Ki [4] | Ki [5] | Ki [6] |
| --- | --- | --- | --- | --- | --- | --- |
| O=C(NC1=C(NC2CCS(=O)(=O)C2)C(=O)c2ccccc2C1=O)c1ccccc1 (stereo unspecified) | 816 nM (active) | – | – | – | – | – |
| O=C1NC(=O)C(c2c[nH]c3ccccc23)=C1c1nc(N2CCNCC2)nc2ccccc12 | – | 794 nM (active) | 100 nM (active) | 2510 nM (active) | > 2000 nM (inactive) | 100 nM (active) |

— ChEMBL document CHEMBL1201862, “PubChem BioAssay data set” (2004)
